# Assay results taken from patent US9272980B2, “Anticancer agent” (KTN BioTec, Inc., priority 2014, dated 2016).
# How the values were obtained:
# [1] = system: human malignant pleural mesothelioma cell lines (NCI-H28, NCI-H2052, NCI-H2452 and MSTO-211H cells); assay: MTT cell viability assay, malignant mesothelioma cell lines; format: cell-based; settings: 24 hr
# From the text: Cancer cells (NCI-H28, NCI-H2052, NCI-H2452 and MSTO-211H) treated or not treated with a given concentration of each test compound for 24 hr were subjected to MTT assay. […] As a control, MTT intensity of the cells not treated with any of naftopidil and the aryloxy derivative of the present invention was used.
# NCI-H28, NCI-H2052, NCI-H2452 and MSTO-211H cells were used as human malignant pleural mesothelioma cell lines. These cells were purchased from American Type Culture Collection (Manassas, Va., USA). The cells were cultured in RPMI (Roswell Park Memorial Institute)-1640 medium added with 0.003% (W/V) L-glutamine.
# (§1) In all cultures, the medium was supplied with 10% (v/v) heat inactivated bovine serum, penicillin (final concentration 100 U/ml) and streptomycin (final concentration 0.1 mg/ml), and culture was performed at 37° C. under humidification atmosphere of 5% CO2 and 95% air.
# (§2) The cell viability was measured by a method using MTT (3-(4,5-dimethyl-2-thiazolyl)-2,5-diphenyl-2H-tetrazolium bromide) in the same manner as in a published report (Cell Physiol Biochem 2012; 30: 61-74).
# [2] = system: human lung cancer cell lines (A549, SBC-3, and Lu-65 cells); assay: MTT cell viability assay, lung cancer cell lines; format: cell-based; settings: A549, SBC-3, Lu-65 cells, 1-100 μM, 24 hr
# From the text: (§3) The following cell lines treated or not treated with a given concentration of HUHS1015 for 24 hr were subjected to MTT assay. (A) lung cancer cell line (B) liver cancer cell line (C) gastric cancer cell line (D) bladder cancer cell line (E) prostate cancer cell line (F) kidney cancer cell line. […] As a control, MTT intensity of the cells not treated with HUHS1015 was used.
# A549, SBC-3 and Lu-65 cells were used as human lung cancer cell lines. These cells were purchased from Health Science Research Resources Bank (Osaka, Japan). A549 cells and SBC-3 cells were cultured in MEM (minimum essential medium) added with 0.1 mM non-essential amino acid, and Lu-65 cells were cultured in RPMI-1640 medium.
# as §1, §2
# [3] = system: MKN45 gastric cancer cells; assay: Growth of subcutaneously inoculated MKN45 gastric cancer cells in nude mouse; format: in vivo; settings: nude BALB/c-nu/nu mouse, MKN45 subcutaneous, 0.23 mg/mouse 25 μM intraperitoneal twice per week, day 33
# Protocol: MKN45 gastric cancer cells were subcutaneously inoculated into the flank of mouse, and 1 week later (day 0), 25 μM of HUHS1015 and 25 μM of naftopidil were intraperitoneally administered (twice/1 week). As a control, a mouse administered with saline was used. The time-course changes (A) of the tumor volume (mean±SEM, n=7) and the results (B) of tumor weight (mean±SEM, n=7) after the lapse of 33 days are shown. P value, Dunnett's test. NS, not significant
# Nude BALB/c-nu/nu mouse (male, 6 week-old) was purchased from Japan SLC, Inc. (Shizuoka, Japan). MKN45 cells (1×10^7 cells) were suspended in a culture medium (200 μl) containing Matrigel (BD Biosciences, San Jose, Calif., USA) and subcutaneously inoculated to the flank of the mouse under general anesthesia with pentobarbital. HUHS1015 (0.23 mg/mouse 25 μM) or naftopidil (0.25 mg/mouse 25 μM) was diluted with saline. At 1 week (Day 0) after inoculation, intraperitoneal administration of saline, HUHS1015 or naftopidil twice per week was started. The longitudinal length (L) and transverse length (S) of the inoculated tumor were measured with calipers, and the tumor volume (V) was calculated from the following formula: V=L×S^2×1/2 The mouse was sacrificed on day 33, the tumor was isolated and the weight thereof was measured.
# [4] = system: human liver cancer cell lines (HepG2 and HuH-7 cells); assay: MTT cell viability assay, liver cancer cell lines; format: cell-based; settings: HepG2, HuH-7 cells, 1-100 μM, 24 hr
# From the text: as §3
# HepG2 cells and HuH-7 cells were used as human […] cancer cell lines. These cells were obtained from RIKEN cell bank (Ibaraki, Japan) and cultured in DMEM (Dulbecco's Modified Eagles Medium).
# as §1, §2
# [5] = system: human prostate cancer cell lines (DU145, LNCap, and PC-3 cells); assay: MTT cell viability assay, prostate cancer cell lines; format: cell-based; settings: 1-100 μM, 24 hr
# From the text: as §3
# DU145 cells, LNCap cells and PC-3 cells were used as human prostate cancer cell lines. These cells were purchased from American Type Culture Collection. The DU145 cells were cultured in DMEM. The LNCaP and PC-3 cells were cultured in RPMI-1640 medium.
# as §1, §2
# [6] = system: human gastric cancer cell lines (MKN-28 and MKN-45 cells); assay: MTT cell viability assay, gastric cancer cell lines; format: cell-based; settings: MKN-28, MKN-45 cells, 1-100 μM, 24 hr
# From the text: as §3
# MKN-28 cells and MKN-45 cells were used as human gastric cancer cell lines. These cells were obtained from Dr. Tatematsu (Nagoya University, Japan) and cultured in RPMI-1640 medium.
# as §1, §2
# [7] = system: human kidney cancer cell lines (ACHN, RCC4-VHL, and 786-O cells); assay: MTT cell viability assay, kidney cancer cell lines; format: cell-based; settings: 1-100 μM, 24 hr
# From the text: as §3
# ACHN cells, RCC4-VHL cells and 786-O cells were used as human kidney cancer cell lines. These cells were purchased from European Collection of Animal Cell Cultures (ECACC; Salisbury, UK), and cultured in DMEM.
# as §1, §2
# [8] = system: human bladder cancer cell lines (253J, 5637, KK-47, TCCSUP, T24, and UM-UC-3 cells); assay: MTT cell viability assay, bladder cancer cell lines; format: cell-based; settings: T24, UM-UC-3 cells, 1-100 μM, 24 hr
# From the text: as §3
# 253J cells, 5637 cells, KK-47 cells, TCCSUP cells, T24 cells and UM-UC-3 cells were used as human bladder cancer cell lines.
# KK-47 cells were provided by Dr. Naito (Department of Urology, Kyushu University, Fukuoka, Japan). 253J cells, 5637 cells, TCCSUP cells, T24 cells and UM-UC-3 cells were purchased from American Type Culture Collection (Manassas, Va., USA). All cells were cultured in RPMI-1640 medium.
# as §1, §2
# [9] = malignant mesothelioma cell lines, 1-100 μM
compound,measurement,setting,value
"COc1ccccc1N1CCN(CC(O)COc2cccc3ccccc23)CC1 (racemic) [naftopidil, (±)-1-[4-(2-methoxyphenyl)piperazinyl]-3-(1-naphthyloxy)propan-2-ol, reference compound]",cell viability (MTT),"[1]; all examined malignant mesothelioma cell lines, 1-100 μM",reduced the cell viability in a concentration dependent manner
same,cell viability (MTT),"[1]; malignant mesothelioma cell lines, concentration of 100 µM, % control",~0%
"COc1cccc(N2CCN(CC(O)COc3cccc4ccccc34)CC2)c1 (stereo not shown) [HUHS1002, 1-(4-(3-methoxyphenyl)piperazinyl)-3-(1-naphthyloxyl)propan-2-ol, reference compound]",activity in reducing cell viability (MTT),[1]; [9],high activity
"OC(COc1cccc2ccccc12)CN1CCN(c2ccccc2)CC1 (stereo not shown) [HUHS1004, 3-(1-naphthyloxy)-1-(4-phenylpiperazinyl)propan-2-ol]",activity in reducing cell viability (MTT),[1]; [9],high activity
"OC(COc1cccc2ccccc12)CN1CCN(c2ccccc2Cl)CC1 (stereo not shown) [HUHS1014, 1-(4-(2-chlorophenyl)piperazinyl)-3-(1-naphthyloxy)-propan-2-ol]",activity in reducing cell viability (MTT),[1]; [9],high activity
"COc1ccccc1NCCNCC(O)COc1cccc2ccccc12 (stereo not shown) [HUHS1015, 1-((2-((2-methoxyphenyl)amino)ethyl)amino)-3-(1-naphthyloxy)propan-2-ol]",cell viability (MTT),[2],reduced the cell viability in a concentration dependent manner
same,"antitumor effect on gastric cancer (tumor volume, tumor weight)",[3],superior to naftopidil
same,cell viability (MTT),[4],reduced the cell viability in a concentration dependent manner
same,cell viability (MTT),[5],reduced the cell viability in a concentration dependent manner
same,cell viability (MTT),[6],reduced the cell viability in a concentration dependent manner
same,cell viability (MTT),[7],reduced the cell viability in a concentration dependent manner
same,cell viability (MTT),[8],reduced the cell viability in a concentration dependent manner
same,activity in reducing cell viability (MTT),[1]; [9],high activity
"COc1ccccc1C1CCN(CC(O)COc2cccc3ccccc23)CC1 (stereo not shown) [HUHS1017, 1-(4-(2-methoxyphenyl)piperidin-1-yl)-3-(1-naphthyloxyl)propan-2-ol]",activity in reducing cell viability (MTT),[1]; [9],high activity
"CCCCCCCN1CCN(CC(O)COc2cccc3ccccc23)CC1 (stereo not shown) [HUHS1018, 1-(4-heptylpiperazinyl)-3-(1-naphthyloxyl)propan-2-ol]",activity in reducing cell viability (MTT),[1]; [9],high activity
"CCCCCCCCN1CCN(CC(O)COc2cccc3ccccc23)CC1 (stereo not shown) [HUHS1019, 3-(1-naphthyloxy)-1-(4-octylpiperazinyl)propan-2-ol]",activity in reducing cell viability (MTT),[1]; [9],high activity
